Assays:
[1] = system: A549; experiment: Growth inhibition of human A549/ATCC cells assessed as cell growth at 100 uM incubated for 48 hrs by sulforhodamine B assay relative to control; format: functional; conditions: A549, 48 h, read-out: Activity
[2] = system: UO-31; experiment: Growth inhibition of human UO31 cells assessed as cell growth at 0.1 uM incubated for 48 hrs by sulforhodamine B assay relative to control; format: functional; conditions: UO-31, 48 h, read-out: Activity
[3] = system: HCT-15; experiment: Growth inhibition of human HCT15 cells incubated for 48 hrs by sulforhodamine B assay; format: functional, cell-based; conditions: HCT-15, 48 h
[4] = system: MCF7; experiment: Growth inhibition of human MCF7 cells incubated for 48 hrs by sulforhodamine B assay; format: functional, cell-based; conditions: MCF7, 48 h
[5] = system: SF-539; experiment: Growth inhibition of human SF539 cells incubated for 48 hrs by sulforhodamine B assay; format: functional, cell-based; conditions: SF-539, 48 h
[6] = system: MDA-MB-435; experiment: Growth inhibition of human MDA-MB-435 cells assessed as cell growth at 100 uM incubated for 48 hrs by sulforhodamine B assay relative to control; format: functional; conditions: MDA-MB-435, 48 h, read-out: Activity
[7] = system: SK-MEL-2; experiment: Growth inhibition of human SK-MEL-2 cells assessed as cell growth at 0.1 uM incubated for 48 hrs by sulforhodamine B assay relative to control; format: functional; conditions: SK-MEL-2, 48 h, read-out: Activity
[8] = system: RPMI-8226; experiment: Growth inhibition of human RPMI8226 cells assessed as cell growth at 1 uM incubated for 48 hrs by sulforhodamine B assay relative to control; format: functional; conditions: RPMI-8226, 48 h, read-out: Activity
[9] = system: HOP-62; experiment: Growth inhibition of human HOP62 cells incubated for 48 hrs by sulforhodamine B assay; format: functional, cell-based; conditions: HOP-62, 48 h
[10] = system: CCRF-CEM; experiment: Growth inhibition of human CCRF-CEM cells assessed as cell growth at 100 uM incubated for 48 hrs by sulforhodamine B assay relative to control; format: functional; conditions: read-out: Activity
[11] = system: Malme-3M; experiment: Growth inhibition of human MALME-3M cells assessed as cell growth at 100 uM incubated for 48 hrs by sulforhodamine B assay relative to control; format: functional; conditions: read-out: Activity
[12] = system: SK-MEL-28; experiment: Growth inhibition of human SK-MEL-28 cells incubated for 48 hrs by sulforhodamine B assay; format: functional, cell-based; conditions: SK-MEL-28, 48 h
[13] = system: MDA-MB-231; experiment: Growth inhibition of human MDA-MB-231 cells assessed as cell growth at 0.01 uM incubated for 48 hrs by sulforhodamine B assay relative to control; format: functional; conditions: MDA-MB-231, 48 h, read-out: Activity
[14] = system: OVCAR-3; experiment: Growth inhibition of human OVCAR3 cells assessed as cell growth at 1 uM incubated for 48 hrs by sulforhodamine B assay relative to control; format: functional; conditions: OVCAR-3, 48 h, read-out: Activity
[15] = system: ACHN; experiment: Growth inhibition of human ACHN cells assessed as cell growth at 1 uM incubated for 48 hrs by sulforhodamine B assay relative to control; format: functional; conditions: read-out: Activity
[16] = system: OVCAR-5; experiment: Growth inhibition of human OVCAR5 cells assessed as cell growth at 0.01 uM incubated for 48 hrs by sulforhodamine B assay relative to control; format: functional; conditions: OVCAR-5, 48 h, read-out: Activity
[17] = system: HCT-116; experiment: Growth inhibition of human HCT116 cells assessed as cell growth at 0.1 uM incubated for 48 hrs by sulforhodamine B assay relative to control; format: functional; conditions: HCT-116, 48 h, read-out: Activity
[18] = system: SK-MEL-2; experiment: Growth inhibition of human SK-MEL-2 cells assessed as cell growth at 100 uM incubated for 48 hrs by sulforhodamine B assay relative to control; format: functional; conditions: SK-MEL-2, 48 h, read-out: Activity
[19] = system: PC-3; experiment: Growth inhibition of human PC3 cells assessed as cell growth at 0.1 uM incubated for 48 hrs by sulforhodamine B assay relative to control; format: functional; conditions: PC-3, 48 h, read-out: Activity
[20] = system: MDA-MB-231; experiment: Growth inhibition of human MDA-MB-231 cells assessed as cell growth at 0.1 uM incubated for 48 hrs by sulforhodamine B assay relative to control; format: functional; conditions: MDA-MB-231, 48 h, read-out: Activity
[21] = system: Hs-578T; experiment: Growth inhibition of human Hs578T cells assessed as cell growth at 0.1 uM incubated for 48 hrs by sulforhodamine B assay relative to control; format: functional; conditions: read-out: Activity
[22] = system: UACC-257; experiment: Growth inhibition of human UACC257 cells assessed as cell growth at 100 uM incubated for 48 hrs by sulforhodamine B assay relative to control; format: functional; conditions: UACC-257, 48 h, read-out: Activity
[23] = system: SK-MEL-2; experiment: Growth inhibition of human SK-MEL-2 cells incubated for 48 hrs by sulforhodamine B assay; format: functional, cell-based; conditions: SK-MEL-2, 48 h
[24] = system: SF-295; experiment: Growth inhibition of human SF295 cells assessed as cell growth at 0.01 uM incubated for 48 hrs by sulforhodamine B assay relative to control; format: functional; conditions: SF-295, 48 h, read-out: Activity
[25] = system: OVCAR-3; experiment: Growth inhibition of human OVCAR3 cells assessed as cell growth at 0.01 uM incubated for 48 hrs by sulforhodamine B assay relative to control; format: functional; conditions: OVCAR-3, 48 h, read-out: Activity
[26] = system: UO-31; experiment: Growth inhibition of human UO31 cells incubated for 48 hrs by sulforhodamine B assay; format: functional, cell-based; conditions: UO-31, 48 h
[27] = system: Malme-3M; experiment: Growth inhibition of human MALME-3M cells assessed as cell growth at 0.01 uM incubated for 48 hrs by sulforhodamine B assay relative to control; format: functional; conditions: read-out: Activity
[28] = system: NCI-H23; experiment: Growth inhibition of human NCI-H23 cells incubated for 48 hrs by sulforhodamine B assay; format: functional, cell-based; conditions: NCI-H23, 48 h
[29] = read-out: LC50 (the source's name)
[30] = read-out: pLC50 (the source's name) (converted)

COc1cc(Cl)cc(-c2nn(-c3cccc(NC(=O)Nc4ccc(Cl)c(C(F)(F)F)c4)c3)cc2-c2ccncc2)c1
growth at 100 µM [1]: -76%
growth at 0.1 µM [2]: 55%
GI50 ([3]; read-out: GI50): 0.493 µM
CC50 [3, 29]: 6.46 µM
TGI ([3]; read-out: TGI): 24 µM
GI50 ([3]; read-out: pGI50 (converted)): 0.49 µM
CC50 [3, 30]: 8.51 µM
TGI ([3]; read-out: pTGI (converted)): 2.4 µM
GI50 ([4]; read-out: GI50): 1.01 µM
LC50 ([4]; read-out: LC50): > 100 µM
TGI ([4]; read-out: TGI): 11 µM
GI50 ([4]; read-out: pGI50 (converted)): 1.02 µM
LC50 ([4]; read-out: pLC50 (converted)): > 100 µM
TGI ([4]; read-out: pTGI (converted)): 11 µM
GI50 ([5]; read-out: GI50): 1.5 µM
CC50 [5, 29]: 7.51 µM
TGI ([5]; read-out: TGI): 33.5 µM
GI50 ([5]; read-out: pGI50 (converted)): 1.51 µM
CC50 [5, 30]: 7.59 µM
TGI ([5]; read-out: pTGI (converted)): 3.39 µM
growth at 100 µM [6]: -40%
growth at 0.1 µM [7]: 52%
growth at 1 µM [8]: 17%
GI50 ([9]; read-out: GI50): 2.12 µM
CC50 [9, 29]: > 100 µM
TGI ([9]; read-out: TGI): 63.2 µM
GI50 ([9]; read-out: pGI50 (converted)): 2.14 µM
CC50 [9, 30]: > 100 µM
TGI ([9]; read-out: pTGI (converted)): 6.31 µM
growth at 100 µM [10]: -29%
growth at 100 µM [11]: -35%
GI50 ([12]; read-out: GI50): 2.41 µM
CC50 [12, 29]: 5.41 µM
TGI ([12]; read-out: TGI): 84.1 µM
GI50 ([12]; read-out: pGI50 (converted)): 2.4 µM
CC50 [12, 30]: 53.7 µM
TGI ([12]; read-out: pTGI (converted)): 4.17 µM
growth at 0.01 µM [13]: 93%
growth at 1 µM [14]: 24%
growth at 1 µM [15]: 45%
growth at 0.01 µM [16]: 54%
growth at 0.1 µM [17]: 97%
growth at 100 µM [18]: -85%
growth at 0.1 µM [19]: 91%
growth at 0.1 µM [20]: 91%
growth at 0.1 µM [21]: 90%
growth at 100 µM [22]: -86%
GI50 ([23]; read-out: GI50): 1.79 µM
CC50 [23, 29]: 9.59 µM
TGI ([23]; read-out: TGI): 42.1 µM
GI50 ([23]; read-out: pGI50 (converted)): 1.78 µM
CC50 [23, 30]: 10 µM
TGI ([23]; read-out: pTGI (converted)): 4.37 µM
growth at 0.01 µM [24]: 59%
growth at 0.01 µM [25]: 91%
IC50 [26]: 1.66 µM
GI50 ([26]; read-out: GI50): 1.56 µM
CC50 [26, 29]: 95.4 µM
TGI ([26]; read-out: TGI): 10.9 µM
GI50 ([26]; read-out: pGI50 (converted)): 1.66 µM
CC50 [26, 30]: 97.7 µM
TGI ([26]; read-out: pTGI (converted)): 11 µM
growth at 0.01 µM [27]: 94%
GI50 ([28]; read-out: GI50): 1.36 µM
LC50 ([28]; read-out: LC50): > 100 µM
TGI ([28]; read-out: TGI): 62.3 µM
GI50 ([28]; read-out: pGI50 (converted)): 1.35 µM
LC50 ([28]; read-out: pLC50 (converted)): > 100 µM
TGI ([28]; read-out: pTGI (converted)): 6.17 µM
